Laboratory results as given in PubChem BioAssay (NCI).
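Compound exposure: 48 hours, 5 concentrations, 96-well plates. Here, GI50 denotes the concentration required for 50% inhibition of growth. TGI denotes the concentration required for complete inhibition of growth.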

Assays:
Experiment in all cases: DTP human tumour cell line panel, 48 h
CCRF-CEM leukemia = tested on: CCRF-CEM leukemia
OVCAR-4 ovarian = tested on: OVCAR-4 ovarian
LOX IMVI melanoma = tested on: LOX IMVI melanoma
OVCAR-8 ovarian = tested on: OVCAR-8 ovarian
MOLT-4 leukemia = tested on: MOLT-4 leukemia
NCI-H23 lung = tested on: NCI-H23 lung
SN12C renal = tested on: SN12C renal
A498 renal = tested on: A498 renal
HCT-15 colon = tested on: HCT-15 colon
HS 578T breast = tested on: HS 578T breast
SNB-75 CNS = tested on: SNB-75 CNS
K-562 leukemia = tested on: K-562 leukemia
NCI-H226 lung = tested on: NCI-H226 lung
OVCAR-5 ovarian = tested on: OVCAR-5 ovarian
MDA-MB-435 = tested on: MDA-MB-435
HT29 colon = tested on: HT29 colon
KM12 colon = tested on: KM12 colon
NCI/ADR-RES ovarian = tested on: NCI/ADR-RES ovarian
UACC-62 melanoma = tested on: UACC-62 melanoma
SK-MEL-2 melanoma = tested on: SK-MEL-2 melanoma
EKVX NSCLC = tested on: EKVX NSCLC
MDA-MB-231 breast = tested on: MDA-MB-231 breast
SK-MEL-5 melanoma = tested on: SK-MEL-5 melanoma
IGROV1 ovarian = tested on: IGROV1 ovarian
RPMI-8226 leukemia = tested on: RPMI-8226 leukemia
SK-MEL-28 melanoma = tested on: SK-MEL-28 melanoma
DU-145 prostate = tested on: DU-145 prostate
SF-539 CNS = tested on: SF-539 CNS
HOP-92 NSCLC = tested on: HOP-92 NSCLC
SW-620 colon = tested on: SW-620 colon
UO-31 renal = tested on: UO-31 renal
HCC-2998 colon = tested on: HCC-2998 colon
786-0 renal = tested on: 786-0 renal
MALME-3M melanoma = tested on: MALME-3M melanoma
SF-268 CNS = tested on: SF-268 CNS
NCI-H522 lung = tested on: NCI-H522 lung
ACHN renal = tested on: ACHN renal
SNB-19 CNS = tested on: SNB-19 CNS
U251 CNS = tested on: U251 CNS
UACC-257 melanoma = tested on: UACC-257 melanoma
A549 NSCLC = tested on: A549 NSCLC
PC-3 prostate = tested on: PC-3 prostate
OVCAR-3 ovarian = tested on: OVCAR-3 ovarian
T-47D breast = tested on: T-47D breast
HOP-62 NSCLC = tested on: HOP-62 NSCLC
COLO 205 colon = tested on: COLO 205 colon
BT-549 breast = tested on: BT-549 breast
HCT-116 colon = tested on: HCT-116 colon
RXF 393 renal = tested on: RXF 393 renal
SF-295 CNS = tested on: SF-295 CNS
SK-OV-3 ovarian = tested on: SK-OV-3 ovarian
NCI-H460 lung = tested on: NCI-H460 lung
HL-60(TB) leukemia = tested on: HL-60(TB) leukemia
CAKI-1 renal = tested on: CAKI-1 renal
TK-10 renal = tested on: TK-10 renal
MCF7 breast = tested on: MCF7 breast
SR leukemia = tested on: SR leukemia
M14 melanoma = tested on: M14 melanoma

COc1ccc(Nc2ncccc2C(=O)NCc2cn(Cc3cccc(Oc4ccccc4)c3)nn2)cc1
GI50 (CCRF-CEM leukemia): 3.8 µM | TGI (CCRF-CEM leukemia): > 100 µM | GI50 (OVCAR-4 ovarian): 5.19 µM | TGI (OVCAR-4 ovarian): > 100 µM | GI50 (LOX IMVI melanoma): 3.6 µM | TGI (LOX IMVI melanoma): > 100 µM | GI50 (OVCAR-8 ovarian): 3.72 µM | TGI (OVCAR-8 ovarian): > 100 µM | GI50 (MOLT-4 leukemia): 2.91 µM | TGI (MOLT-4 leukemia): > 100 µM | GI50 (NCI-H23 lung): 3.45 µM | TGI (NCI-H23 lung): > 100 µM | GI50 (SN12C renal): 4.75 µM | TGI (SN12C renal): > 100 µM | GI50 (A498 renal): 2.35 µM | TGI (A498 renal): 8.71 µM | GI50 (HCT-15 colon): 3.93 µM | TGI (HCT-15 colon): > 100 µM | GI50 (HS 578T breast): 5.9 µM | TGI (HS 578T breast): > 100 µM | GI50 (SNB-75 CNS): 3.09 µM | TGI (SNB-75 CNS): > 100 µM | GI50 (K-562 leukemia): 3.48 µM | TGI (K-562 leukemia): > 100 µM | GI50 (NCI-H226 lung): 3.92 µM | TGI (NCI-H226 lung): > 100 µM | GI50 (OVCAR-5 ovarian): 4.23 µM | TGI (OVCAR-5 ovarian): > 100 µM | GI50 (MDA-MB-435): 1.71 µM | TGI (MDA-MB-435): 4.34 µM | GI50 (HT29 colon): 3.66 µM | TGI (HT29 colon): 15.4 µM | GI50 (KM12 colon): 3.43 µM | TGI (KM12 colon): > 100 µM | GI50 (NCI/ADR-RES ovarian): 2.12 µM | TGI (NCI/ADR-RES ovarian): 6.69 µM | GI50 (UACC-62 melanoma): 3.13 µM | TGI (UACC-62 melanoma): > 100 µM | GI50 (SK-MEL-2 melanoma): 3.66 µM | TGI (SK-MEL-2 melanoma): > 100 µM | GI50 (EKVX NSCLC): 4.16 µM | TGI (EKVX NSCLC): > 100 µM | GI50 (MDA-MB-231 breast): 3.09 µM | TGI (MDA-MB-231 breast): 8.62 µM | GI50 (SK-MEL-5 melanoma): 2.9 µM | TGI (SK-MEL-5 melanoma): > 100 µM | GI50 (IGROV1 ovarian): 5.89 µM | TGI (IGROV1 ovarian): > 100 µM | GI50 (RPMI-8226 leukemia): 4.84 µM | TGI (RPMI-8226 leukemia): > 100 µM | GI50 (SK-MEL-28 melanoma): 3.88 µM | TGI (SK-MEL-28 melanoma): > 100 µM | GI50 (DU-145 prostate): 3.76 µM | TGI (DU-145 prostate): > 100 µM | GI50 (SF-539 CNS): 2.79 µM | TGI (SF-539 CNS): 6.69 µM | GI50 (HOP-92 NSCLC): 5.67 µM | TGI (HOP-92 NSCLC): > 100 µM | GI50 (SW-620 colon): 3.86 µM | TGI (SW-620 colon): > 100 µM | GI50 (UO-31 renal): 3 µM | TGI (UO-31 renal): > 100 µM | GI50 (HCC-2998 colon): 2.53 µM | TGI (HCC-2998 colon): 6.85 µM | GI50 (786-0 renal): 5.59 µM | TGI (786-0 renal): > 100 µM | GI50 (MALME-3M melanoma): 3.8 µM | TGI (MALME-3M melanoma): > 100 µM | GI50 (SF-268 CNS): 4.59 µM | TGI (SF-268 CNS): > 100 µM | GI50 (NCI-H522 lung): 2.13 µM | TGI (NCI-H522 lung): 5.44 µM | GI50 (ACHN renal): 4.79 µM | TGI (ACHN renal): > 100 µM | GI50 (SNB-19 CNS): 3.55 µM | TGI (SNB-19 CNS): > 100 µM | GI50 (U251 CNS): 3.91 µM | TGI (U251 CNS): > 100 µM | GI50 (UACC-257 melanoma): 4.82 µM | TGI (UACC-257 melanoma): > 100 µM | GI50 (A549 NSCLC): 3.44 µM | TGI (A549 NSCLC): > 100 µM | GI50 (PC-3 prostate): 3.86 µM | TGI (PC-3 prostate): > 100 µM | GI50 (OVCAR-3 ovarian): 2.98 µM | TGI (OVCAR-3 ovarian): 7.59 µM | GI50 (T-47D breast): 4.03 µM | TGI (T-47D breast): > 100 µM | GI50 (HOP-62 NSCLC): 5.07 µM | TGI (HOP-62 NSCLC): > 100 µM | GI50 (COLO 205 colon): 2.86 µM | TGI (COLO 205 colon): 7.93 µM | GI50 (BT-549 breast): 4.58 µM | TGI (BT-549 breast): > 100 µM | GI50 (HCT-116 colon): 4.17 µM | TGI (HCT-116 colon): > 100 µM | GI50 (RXF 393 renal): 2.59 µM | TGI (RXF 393 renal): 7.16 µM | GI50 (SF-295 CNS): 2.94 µM | TGI (SF-295 CNS): > 100 µM | GI50 (SK-OV-3 ovarian): 3.11 µM | TGI (SK-OV-3 ovarian): 9.63 µM | GI50 (NCI-H460 lung): 3.52 µM | TGI (NCI-H460 lung): > 100 µM | GI50 (HL-60(TB) leukemia): 2.66 µM | TGI (HL-60(TB) leukemia): > 100 µM | GI50 (CAKI-1 renal): 3.41 µM | TGI (CAKI-1 renal): > 100 µM | GI50 (TK-10 renal): 4.59 µM | TGI (TK-10 renal): > 100 µM

CCNCCNC(=O)c1ccc(Br)cc1
TGI (CCRF-CEM leukemia): > 100 µM | TGI (OVCAR-4 ovarian): > 100 µM | TGI (LOX IMVI melanoma): > 100 µM | TGI (OVCAR-8 ovarian): > 100 µM | TGI (MOLT-4 leukemia): > 100 µM | TGI (NCI-H23 lung): > 100 µM | TGI (SN12C renal): > 100 µM | TGI (A498 renal): > 100 µM | TGI (HCT-15 colon): > 100 µM | TGI (HS 578T breast): > 100 µM | TGI (SNB-75 CNS): > 100 µM | TGI (K-562 leukemia): > 100 µM | TGI (NCI-H226 lung): > 100 µM | TGI (OVCAR-5 ovarian): > 100 µM | TGI (HT29 colon): > 100 µM | TGI (KM12 colon): > 100 µM | TGI (NCI/ADR-RES ovarian): > 100 µM | TGI (UACC-62 melanoma): > 100 µM | TGI (MCF7 breast): > 100 µM | TGI (EKVX NSCLC): > 100 µM | TGI (SK-MEL-5 melanoma): > 100 µM | TGI (IGROV1 ovarian): > 100 µM | TGI (RPMI-8226 leukemia): > 100 µM | TGI (SR leukemia): > 100 µM | TGI (SK-MEL-28 melanoma): > 100 µM | TGI (SF-539 CNS): > 100 µM | TGI (HOP-92 NSCLC): > 100 µM | TGI (SW-620 colon): > 100 µM | TGI (UO-31 renal): > 100 µM | TGI (HCC-2998 colon): > 100 µM | TGI (M14 melanoma): > 100 µM | TGI (786-0 renal): > 100 µM | TGI (SF-268 CNS): > 100 µM | TGI (ACHN renal): > 100 µM | TGI (SNB-19 CNS): > 100 µM | TGI (U251 CNS): > 100 µM | TGI (A549 NSCLC): > 100 µM | TGI (PC-3 prostate): > 100 µM | TGI (OVCAR-3 ovarian): > 100 µM | TGI (BT-549 breast): > 100 µM | TGI (RXF 393 renal): > 100 µM | TGI (SK-OV-3 ovarian): > 100 µM | TGI (NCI-H460 lung): > 100 µM | TGI (HL-60(TB) leukemia): > 100 µM | TGI (CAKI-1 renal): > 100 µM | TGI (TK-10 renal): > 100 µM

COC(=O)C(Cc1ccccc1)C(=O)C(CC(=O)OC(C)(C)C)NC(=O)OC(C)(C)C (stereo unspecified)
GI50 (HCT-15 colon): 28.2 µg/mL | GI50 (KM12 colon): 59.7 µg/mL | GI50 (UO-31 renal): 24.7 µg/mL | TGI (UO-31 renal): 66.8 µg/mL | GI50 (A549 NSCLC): 26.2 µg/mL | GI50 (HCT-116 colon): 26.5 µg/mL | TGI (HCT-116 colon): 87.9 µg/mL

CC1=C(C)C(=O)OC([C@](C)(O)[C@]2(O)CC[C@@]3(O)[C@@H]4C[C@H]5O[C@]56CC=CC(=O)[C@]6(C)[C@H]4CC[C@]23COC(=O)c2ccc(C)o2)C1 (stereo partly specified)
TGI (CCRF-CEM leukemia): > 35.4 µM | TGI (OVCAR-4 ovarian): > 34.1 µM | TGI (MOLT-4 leukemia): > 22.4 µM | TGI (HS 578T breast): > 51.6 µM | TGI (K-562 leukemia): > 43.5 µM | TGI (NCI-H226 lung): > 33 µM | TGI (NCI/ADR-RES ovarian): > 79.7 µM | GI50 (MCF7 breast): > 100 µM | TGI (MCF7 breast): > 100 µM | TGI (MDA-MB-231 breast): > 24.4 µM | TGI (RPMI-8226 leukemia): > 33.2 µM | TGI (SR leukemia): > 100 µM | TGI (MALME-3M melanoma): > 31.8 µM | TGI (SNB-19 CNS): > 24.7 µM | TGI (UACC-257 melanoma): > 20.9 µM | TGI (A549 NSCLC): > 32.4 µM | TGI (HOP-62 NSCLC): > 21 µM | TGI (SF-295 CNS): > 32.6 µM
